From PubChem BioAssay AID330 (DTP/NCI, 2004)
Several values for one entry are separate records, joined by “and”; a condition that tells them apart may be missing. Identical values can stand only once. Toxic doses and inconclusive results are not listed. Rule for the calls: active = survival T/C of 150% or more; inactive = T/C below 125% in these data.

Tested on: P388 leukemia ip, CD2F1 mice, survival T/C
Assay: NCI In Vivo Anticancer Drug Screen. Data for tumor model P388 Leukemia (intraperitoneal) in CD2F1 (CDF1) mice
Details: endpoint: median survival time, higher = longer survival
Summary of the method: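 Mice carrying the transplanted tumor received test compound or vehicle. Survival was recorded in each group, and the value is the treated-group measurement divided by that of the vehicle-treated control group.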

[1] = dose: 6.25 mg/kg/injection, schedule: Q01DX009 (ip), vehicle: saline
[2] = dose: 25.0 mg/kg/injection, schedule: Q01DX009 (ip), vehicle: saline
[3] = dose: 12.5 mg/kg/injection, schedule: Q01DX009 (ip), vehicle: saline with Tween-80
[4] = dose: 100.0 mg/kg/injection, schedule: Q01DX009 (ip), vehicle: saline with Tween-80
[5] = dose: 200.0 mg/kg/injection, schedule: Q01DX009 (ip), vehicle: saline with Tween-80
[6] = dose: 400.0 mg/kg/injection, schedule: Q01DX009 (ip), vehicle: saline with Tween-80
[7] = dose: 50.0 mg/kg/injection, schedule: Q01DX009 (ip), vehicle: saline
[8] = dose: 100.0 mg/kg/injection, schedule: Q01DX009 (ip), vehicle: saline
[9] = dose: 200.0 mg/kg/injection, schedule: Q01DX009 (ip), vehicle: saline

Measured: T/C

C=C1C(=O)OC2C1CC(OC(C)=O)/C(C)=C/CCC1(C)OC21 (centres undefined)
inactive: dose: 4.0 mg/kg/injection, schedule: Q01DX009 (ip), vehicle: Klucel (hydroxypropylcellulose) (HPC) 93 % of control | dose: 8.0 mg/kg/injection, schedule: Q01DX009 (ip), vehicle: Klucel (hydroxypropylcellulose) (HPC) 97 % of control | dose: 16.0 mg/kg/injection, schedule: Q01DX009 (ip), vehicle: Klucel (hydroxypropylcellulose) (HPC) 96 % of control | dose: 32.0 mg/kg/injection, schedule: Q01DX009 (ip), vehicle: Klucel (hydroxypropylcellulose) (HPC) 93 % of control

NC(=S)c1ccc(N)cc1
inactive: dose: 100.0 mg/kg/injection, schedule: Q04DX003 (ip), vehicle: Klucel (hydroxypropylcellulose) (HPC) 100 % of control | dose: 200.0 mg/kg/injection, schedule: Q04DX003 (ip), vehicle: Klucel (hydroxypropylcellulose) (HPC) 106 % of control

CCN(CC)CCCCCCCNc1cc(OC)cc2c(C)ccnc12
inactive: [1] 90 % of control | dose: 12.5 mg/kg/injection, schedule: Q01DX009 (ip), vehicle: saline 93 % of control | [2] 99 % of control

Cc1csc2ccc(Cl)cc12
inactive: dose: 100.0 mg/kg/injection, schedule: Q01DX001 (ip), vehicle: Klucel (hydroxypropylcellulose) (HPC) 95 % of control | dose: 200.0 mg/kg/injection, schedule: Q01DX001 (ip), vehicle: Klucel (hydroxypropylcellulose) (HPC) 107 % of control | dose: 400.0 mg/kg/injection, schedule: Q01DX001 (ip), vehicle: Klucel (hydroxypropylcellulose) (HPC) 107 % of control

CN(C)CCNc1ccc([N+](=O)[O-])c2sc3ccccc3c(=O)c12
inactive: [3] 114 % of control | [4] 103 % of control and 89 % of control

N=c1c2ccccc2nc2n1CCCCC2
inactive: dose: 25.0 mg/kg/injection, schedule: Q04DX003 (ip), vehicle: saline 103 % of control | dose: 50.0 mg/kg/injection, schedule: Q04DX003 (ip), vehicle: saline 95 % of control

C/C(=N\NC(=O)c1ccccc1O)c1cccc(/C(C)=N/NC(=O)c2ccccc2O)n1
inactive: dose: 3.12 mg/kg/injection, schedule: Q01DX009 (ip), vehicle: saline 110 % of control | [1] 114 % of control

COc1ccc2c3c([nH]c2c1[N+](=O)[O-])C(C)N(S(=O)(=O)c1ccccc1)CC3 (centres undefined)
inactive: dose: 8.5 mg/kg/injection, schedule: Q01DX005 (ip), vehicle: Klucel (hydroxypropylcellulose) (HPC) 95 % of control | dose: 17.0 mg/kg/injection, schedule: Q01DX005 (ip), vehicle: Klucel (hydroxypropylcellulose) (HPC) 97 % of control | dose: 34.0 mg/kg/injection, schedule: Q01DX005 (ip), vehicle: Klucel (hydroxypropylcellulose) (HPC) 104 % of control | dose: 68.0 mg/kg/injection, schedule: Q01DX005 (ip), vehicle: Klucel (hydroxypropylcellulose) (HPC) 95 % of control | dose: 136.0 mg/kg/injection, schedule: Q01DX005 (ip), vehicle: Klucel (hydroxypropylcellulose) (HPC) 89 % of control

C/C=C1\C[C@H]2C(=O)Nc3cc(O)c(OC)cc3C(=O)N2C1
inactive: dose: 25.0 mg/kg/injection, schedule: Q01DX005 (ip), vehicle: saline with Tween-80 96 % of control | dose: 50.0 mg/kg/injection, schedule: Q01DX005 (ip), vehicle: saline with Tween-80 105 % of control | dose: 100.0 mg/kg/injection, schedule: Q01DX005 (ip), vehicle: saline with Tween-80 106 % of control

CCOC(=O)CCC(NC(=O)c1ccc(NS(=O)(=O)c2ccc(C)cc2)cc1)C(=O)OCC (centres undefined)
inactive: dose: 3.13 mg/kg/injection, schedule: Q01DX009 (ip), vehicle: saline with Tween-80 93 % of control | dose: 6.25 mg/kg/injection, schedule: Q01DX009 (ip), vehicle: saline with Tween-80 93 % of control | [3] 86 % of control | dose: 50.0 mg/kg/injection, schedule: Q01DX009 (ip), vehicle: saline with Tween-80 110 % of control | [4] 100 % of control | [5] 99 % of control | [6] 99 % of control

Cn1c(=O)c2[nH]c(Cl)nc2n(C)c1=O
inactive: [2] 100 % of control | [7] 102 % of control | [8] 102 % of control | [9] 99 % of control

NC(Cc1cccc(F)c1)c1nn[nH]n1 (centres undefined)
inactive: dose: 50.0 mg/kg/injection, schedule: Q04DX003 (ip), vehicle: saline with Tween-80 100 % of control | dose: 100.0 mg/kg/injection, schedule: Q04DX003 (ip), vehicle: saline with Tween-80 93 % of control

O=S(=O)(O)C(Nc1ccccc1)c1ccccc1 (centres undefined)
inactive: [4] 100 % of control | dose: 100.0 mg/kg/injection, schedule: Q04DX003 (ip), vehicle: saline sonified 100 % of control | [5] 109 % of control | dose: 200.0 mg/kg/injection, schedule: Q04DX003 (ip), vehicle: saline sonified 100 % of control | [6] 104 % of control | dose: 400.0 mg/kg/injection, schedule: Q04DX003 (ip), vehicle: saline sonified 100 % of control

Cc1cc2c(cc1C)C(O)CCC(=O)N2 (centres undefined)
inactive: dose: 60.0 mg/kg/injection, schedule: Q01DX005 (ip), vehicle: saline with Tween-80 95 % of control | dose: 120.0 mg/kg/injection, schedule: Q01DX005 (ip), vehicle: saline with Tween-80 91 % of control | dose: 240.0 mg/kg/injection, schedule: Q01DX005 (ip), vehicle: saline with Tween-80 87 % of control

COc1ccc(CCNC(=O)c2c3nc4c(C(=O)NCCc5ccc(OC)cc5)ccc(C)c4oc-3c(C)c(=O)c2N)cc1
inactive: dose: 50.0 mg/kg/injection, schedule: Q04DX003 (ip), vehicle: DMSO 98 % of control | dose: 100.0 mg/kg/injection, schedule: Q04DX003 (ip), vehicle: DMSO 100 % of control | dose: 200.0 mg/kg/injection, schedule: Q04DX003 (ip), vehicle: DMSO 98 % of control

CC(C)=CC(=O)OCCN(C)C
inactive: [7] 109 % of control | [8] 93 % of control | [9] 93 % of control

Cc1oc(N)c(C#N)c1C
inactive: dose: 100.0 mg/kg/injection, schedule: Q01DX009 (ip), vehicle: saline sonified 110 % of control | dose: 200.0 mg/kg/injection, schedule: Q01DX009 (ip), vehicle: saline sonified 115 % of control | dose: 400.0 mg/kg/injection, schedule: Q01DX009 (ip), vehicle: saline sonified 120 % of control

COc1ccccc1N=Nc1c(-c2cccs2)nn(C(N)=S)c1C(F)(F)F
inactive: dose: 60.0 mg/kg/injection, schedule: Q01DX005 (ip), vehicle: Klucel (hydroxypropylcellulose) (HPC) 99 % of control | dose: 120.0 mg/kg/injection, schedule: Q01DX005 (ip), vehicle: Klucel (hydroxypropylcellulose) (HPC) 97 % of control | dose: 240.0 mg/kg/injection, schedule: Q01DX005 (ip), vehicle: Klucel (hydroxypropylcellulose) (HPC) 89 % of control

CCCC(=O)Nc1ccc(C2=NNC(=O)C3CC23)cc1 (centres undefined)
inactive: dose: 50.0 mg/kg/injection, schedule: Q01DX005 (ip), vehicle: saline + Tween-80 + alcohol 99 % of control | dose: 100.0 mg/kg/injection, schedule: Q01DX005 (ip), vehicle: saline + Tween-80 + alcohol 99 % of control | dose: 200.0 mg/kg/injection, schedule: Q01DX005 (ip), vehicle: saline + Tween-80 + alcohol 97 % of control

CCCCCC(=O)N1SC(NC(=O)OC)=Nc2ccccc21
inactive: dose: 50.0 mg/kg/injection, schedule: Q01DX005 (ip), vehicle: acetone 102 % of control | dose: 100.0 mg/kg/injection, schedule: Q01DX005 (ip), vehicle: acetone 107 % of control | dose: 200.0 mg/kg/injection, schedule: Q01DX005 (ip), vehicle: acetone 107 % of control

COC1OC(CO)C(O)C2OCCOCCOC3C(OC)OC(CO)C(O)C3OCCOCCOC12 (centres undefined)
inactive: dose: 60.0 mg/kg/injection, schedule: Q01DX005 (ip), vehicle: saline 103 % of control | dose: 120.0 mg/kg/injection, schedule: Q01DX005 (ip), vehicle: saline 101 % of control | dose: 240.0 mg/kg/injection, schedule: Q01DX005 (ip), vehicle: saline 97 % of control
